Active and inactive are the calls of the source. The rule behind the calls is not given here.
Experiments:
[1] = Cytotoxicity against human HeLa cells assessed as reduction in cell viability at 12 uM measured after 24 to 72 hrs; type: toxicity, cell-based
HeLa = assay: Binding affinity to Photinus pyralis luciferase mRNA harboring the UGA premature stop codon expressed in human HeLa cells assessed as suppression of nonsense mutations by read-through of premature stop codon at 12 uM measured after 24 hrs by luminescence analysis; type: cell-based
IB3-1 [2] = assay: Binding affinity to CFTR mRNA UGA mutant in human IB3-1 cells carrying W1282X mutation in CFTR gene assessed as increase in CFTR expression measured after 24 to 72 hrs by Western blot analysis; type: cell-based
[3] = Cytotoxicity against human HeLa cells assessed as reduction in cell viability at 300 ug/ml measured after 24 to 72 hrs; type: toxicity, cell-based
IB3-1 [4] = assay: (§1) Binding affinity to CFTR mRNA UGA mutant in human IB3-1 cells carrying W1282X mutation in CFTR gene assessed as suppression of nonsense mutations by read-through of UGA premature stop codon measured as induction of CFTR re-expression after 24 hrs by DAPI/Alexa-488/WGA-Alexa594 staining-based immunofluorescence analysis; type: cell-based
IB3-1 [5] = assay: as §1, with “localization” for “induction”, “in cell membrane” for “re-expression”; type: cell membranes

Cc1cccc(-c2nc(-c3cccnc3)no2)c1
Activity [1]: Non-Toxic

N#Cc1cccc(-c2nc(-c3ccccn3)no2)c1
Activity [1]: Non-Toxic

O=C(O)c1cccc(-c2noc(-c3ccccc3F)n2)c1 [ATALUREN]
Activity [1]: Non-Toxic | Activity (HeLa): Active | Activity (IB3-1 [2]): Active

Cc1cccc(-c2noc(-c3ccccc3C)n2)c1
Activity [1]: Non-Toxic

CN[C@@H]1[C@@H](O)[C@@H](O[C@H]2[C@H](O)[C@@H](O[C@H]3O[C@H](C(C)O)[C@@H](O)[C@H](O)[C@H]3N)[C@H](N)C[C@@H]2N)OC[C@]1(C)O (some centres undefined)
Activity [3]: Toxic

Cc1cccc(-c2nc(-c3ccccn3)no2)c1
Activity (IB3-1 [4]): Active | Activity [1]: Non-Toxic | Activity (HeLa): Active | Activity (IB3-1 [5]): Active | Activity (IB3-1 [2]): Active

Cc1cccc(-c2nc(-c3ccccc3)no2)c1
Activity [1]: Non-Toxic

Cc1cccc(-c2nc(-c3ccncc3)no2)c1
Activity [1]: Non-Toxic

From ChEMBL document CHEMBL3867424, “Exploring the readthrough of nonsense mutations by non-acidic Ataluren analogues selected by ligand-based virtual screening” (Eur J Med Chem, 2016)
